The results in this text go back to patent US12187709B2 (Genentech, Inc., priority 2021, dated 2025).

For experiment [1], the target named is Cbl-b (Homo sapiens (Human), UniProt Q13191). Kind of experiment: Cbl-b LCK Ub TR-FRET assay (Cbl-b Lck HTRF). The format is biochemical. As to conditions: for IC50: Cbl-b LCK Ub TR-FRET; for fold-selectivity (Cbl-b over C-cbl): ratio C-cbl Lck HTRF IC50 / Cbl-b Lck HTRF IC50. Summed up: (§1)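 Detection reagents added, brief spin, 20 min RT. IC50 fit normalized to no-LCK (low) and DMSO (high) controls.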
Cbl-b, sequence (Q13191 40-426): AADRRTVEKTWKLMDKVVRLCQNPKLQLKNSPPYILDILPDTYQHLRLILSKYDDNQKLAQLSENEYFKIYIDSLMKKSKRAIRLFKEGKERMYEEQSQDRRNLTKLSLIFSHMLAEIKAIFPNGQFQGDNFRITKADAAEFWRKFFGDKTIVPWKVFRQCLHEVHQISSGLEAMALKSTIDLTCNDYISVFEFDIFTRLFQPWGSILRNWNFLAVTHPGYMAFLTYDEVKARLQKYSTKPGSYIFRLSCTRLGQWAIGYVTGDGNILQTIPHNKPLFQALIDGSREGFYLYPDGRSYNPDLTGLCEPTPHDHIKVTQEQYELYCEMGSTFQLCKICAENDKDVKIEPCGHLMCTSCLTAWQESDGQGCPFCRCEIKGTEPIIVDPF

Experiment [2] concerns the target c-Cbl (Homo sapiens (Human), UniProt P22681). Kind of experiment: C-Cbl LCK Ub TR-FRET assay (C-cbl Lck HTRF). The format is biochemical. Summed up: as §1
Experiment [3] deals with Human Cbl-b (residues 40-426) (Homo sapiens (Human), UniProt Q13191). Kind of experiment: Cbl-b SPR assay. The format is binding. Conditions: for Fold of selectivity: C-cbl SPR Kd vs Cbl-b SPR Kd; for Kd: SPR, 20° C. Summed up:
(§2)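 Protein captured at 1300-1500 RU; compounds run as 6-point 2-fold series in multi-cycle kinetics (60 s contact, 40 μl/min, 120-1200 s dissociation), fitted 1:1. For slow binders, kd came from chaser-compound occupancy over time, fixed in a single-cycle fit (5 concentrations, top 500 nM).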

Experiment [4] addresses c-Cbl (residues 47-435) (Homo sapiens (Human), UniProt P22681). Briefly: c-Cbl SPR assay. The format is binding. As to conditions: 20° C. Summed up:
as §2

c-Cbl (residues 47-435), sequence (P22681 47-435): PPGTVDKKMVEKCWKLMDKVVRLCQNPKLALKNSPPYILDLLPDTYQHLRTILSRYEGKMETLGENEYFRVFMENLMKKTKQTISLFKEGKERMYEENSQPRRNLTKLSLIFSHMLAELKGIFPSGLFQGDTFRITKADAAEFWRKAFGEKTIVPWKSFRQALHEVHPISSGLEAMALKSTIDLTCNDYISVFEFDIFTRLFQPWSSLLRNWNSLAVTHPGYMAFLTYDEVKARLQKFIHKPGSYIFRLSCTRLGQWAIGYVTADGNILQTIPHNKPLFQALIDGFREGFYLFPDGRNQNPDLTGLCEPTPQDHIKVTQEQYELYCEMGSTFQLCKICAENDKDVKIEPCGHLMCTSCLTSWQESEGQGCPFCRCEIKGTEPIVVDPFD
c-Cbl, sequence (P22681 47-435): as above
Human Cbl-b (residues 40-426), sequence (Q13191 40-426): as the sequence (Q13191 40-426) above

As for `CCNc1cc(N2Cc3c(cc(CNC4(C)CCC4)cc3C(F)(F)F)C2=O)cc([C@]2(c3nncn3C)C[C@@H](C)C2)c1` [Compound 91, 2-(3-(ethylamino)-5-((1s,3s)-3-methyl-1-(4-methyl-4H-1,2,4-triazol-3-yl)cyclobutyl)phenyl)-6-(((1-methylcyclobutyl)amino)methyl)-4-(trifluoromethyl)-isoindolin-1-one], the IC50 in experiment [1] amounted to 10 nM; in experiment [2] it was 8 nM. Also, the “fold-selectivity (Cbl-b over C-cbl)” value in experiment [1] is 0.8x. Moreover, in experiment [3], the Fold of selectivity stood at 3.0×. Moreover, the results for the dissociation constant Kd in experiment [3] and in experiment [4] were 0.3 nM and 0.9 nM, respectively.
As for `Cn1cnnc1C1(c2cccc(N3Cc4c(cc(CNC5(C)CCC5)cc4C(F)(F)F)C3=O)c2)CC2(CC(F)(F)C2)C1` [Compound 94, 2-(3-(6,6-difluoro-2-(4-methyl-4H-1,2,4-triazol-3-yl)spiro[3.3]heptan-2-yl)phenyl)-6-(((1-methylcyclobutyl)amino)methyl)-4-(trifluoromethyl)isoindolin-1-one], the IC50 in experiment [1] was 21 nM; in experiment [2] it was 120 nM. For the same molecule, the “fold-selectivity (Cbl-b over C-cbl)” value in experiment [1] was 6.0x. Moreover, the Fold of selectivity in experiment [3] is reported as 19×. For the same molecule, the Kd in experiment [3] turned out to be 7.4 nM; in experiment [4], 140 nM.
For the molecule `Cn1cnnc1[C@]1(c2cccc(N3Cc4c(cc(CNC5(C)CCC5)cc4C(F)(F)F)C3=O)c2)C[C@H](F)C1` [Compound 95, 2-(3-((1s,3s)-3-fluoro-1-(4-methyl-4H-1,2,4-triazol-3-yl)cyclobutyl)-phenyl)-6-(((1-methylcyclobutyl)amino)methyl)-4-(trifluoromethyl)isoindolin-1-one], the IC50 in experiment [1] came to 12 nM; in experiment [2], 21 nM. In addition, the “fold-selectivity (Cbl-b over C-cbl)” value in experiment [1] is reported as 1.7x. This molecule came in with a Fold of selectivity in experiment [3] of 7.5×. The Kd turned out to be 2 nM in experiment [3] and 15 nM in experiment [4].
With `Cn1cnnc1C1(c2cccc(N3Cc4c(cc(CNC5(C)CCC5)cc4C(F)(F)F)C3=O)c2)CC2(CN(CC(F)(F)F)C2)C1` [Compound 96, 2-(3-(6-(4-methyl-4H-1,2,4-triazol-3-yl)-2-(2,2,2-trifluoroethyl)-2-azaspiro[3.3]heptan-6-yl)phenyl)-6-(((1-methylcyclobutyl)amino)methyl)-4-(trifluoromethyl)-isoindolin-1-one], the results for the IC50 in experiment [1] and in experiment [2] were 4500 nM and 16000 nM, respectively. In experiment [1], the “fold-selectivity (Cbl-b over C-cbl)” value is 3.7x. In experiment [3], the Fold of selectivity was determined as 4.1×. Besides, the Kd amounted to 4300 nM in experiment [3] and 18000 nM in experiment [4].
`Cn1cnnc1[C@]1(c2cccc(N3Cc4c(cc(CNC5(C)CCC5)cc4C(F)(F)F)C3=O)c2)C[C@H](CO)C1.O=CO` [Compound 99, 2-(3-((1s,3s)-3-(hydroxymethyl)-1-(4-methyl-4H-1,2,4-triazol-3-yl)cyclobutyl)phenyl)-6-(((1-methylcyclobutyl)amino)methyl)-4-(trifluoromethyl)isoindolin-1-one formate]: in experiment [1], the IC50 was 86 nM and the “fold-selectivity (Cbl-b over C-cbl)” value came to 3.7x. For the same molecule, the IC50 in experiment [2] amounted to 320 nM. In experiment [3], this molecule came in with a Fold of selectivity of 4.8× and a Kd of 48 nM. In experiment [4], this molecule registered a Kd of 230 nM.
In the case of `Cn1cnnc1[C@]1(c2cccc(N3Cc4c(cc(CNC5(C)CCC5)cc4C(F)(F)F)C3=O)c2)C[C@@H](CO)C1.O=CO` [Compound 100, 2-(3-((1r,3r)-3-(hydroxymethyl)-1-(4-methyl-4H-1,2,4-triazol-3-yl)cyclobutyl)phenyl)-6-(((1-methylcyclobutyl)amino)methyl)-4-(trifluoromethyl)isoindolin-1-one formate], in experiment [1], half-maximal inhibition (IC50) required 25 nM and the “fold-selectivity (Cbl-b over C-cbl)” value came out at 3.5x. This molecule registered an IC50 in experiment [2] of 86 nM. Besides, in experiment [3], the Fold of selectivity amounted to 12× and the Kd was found to be 5.8 nM. Also, the dissociation constant Kd in experiment [4] turned out to be 72 nM.
With `Cn1cnnc1[C@]1(c2cccc(N3Cc4c(cc(CNC5(C)CCC5)cc4C(F)(F)F)C3=O)c2)C[C@@H](CF)C1` [Compound 101, 2-(3-((1r,3r)-3-(fluoromethyl)-1-(4-methyl-4H-1,2,4-triazol-3-yl)cyclobutyl)phenyl)-6-(((1-methylcyclobutyl)amino)methyl)-4-(trifluoromethyl)isoindolin-1-one], in experiment [1], the concentration for half-maximal inhibition (IC50) came to 9.1 nM and the “fold-selectivity (Cbl-b over C-cbl)” value is on record as 1.1x. 9.8 nM corresponded to half-maximal inhibition in experiment [2] (IC50). Further, in experiment [3], the Fold of selectivity amounted to 4.9× and the Kd was found to be 0.85 nM. In addition, in experiment [4], the Kd stood at 4.2 nM.
In the case of `Cn1cnnc1[C@]1(c2cccc(N3Cc4c(cc(CNC5(C)CCC5)cc4C(F)(F)F)C3=O)c2)C[C@H](CF)C1` [Compound 102, 2-(3-((1s,3s)-3-(fluoromethyl)-1-(4-methyl-4H-1,2,4-triazol-3-yl)cyclobutyl)phenyl)-6-(((1-methylcyclobutyl)amino)methyl)-4-(trifluoromethyl)isoindolin-1-one], the IC50 stood at 7.2 nM in experiment [1] and 11 nM in experiment [2]. The “fold-selectivity (Cbl-b over C-cbl)” value in experiment [1] amounted to 1.5x. The same molecule yielded a Fold of selectivity in experiment [3] of 4.7×. In addition, the Kd was 0.83 nM in experiment [3] and 3.9 nM in experiment [4].
As for `COC[C@H]1C[C@@](c2cccc(N3Cc4c(cc(CNC5(C)CCC5)cc4C(F)(F)F)C3=O)c2)(c2nncn2C)C1` [Compound 103, 2-(3-((1s,3s)-3-(methoxymethyl)-1-(4-methyl-4H-1,2,4-triazol-3-yl)cyclobutyl)phenyl)-6-(((1-methylcyclobutyl)amino)methyl)-4-(trifluoromethyl)isoindolin-1-one], in experiment [1], the IC50 is 14 nM and the “fold-selectivity (Cbl-b over C-cbl)” value is listed as 1.7x. In experiment [2], this molecule displayed an IC50 of 26 nM. Also, in experiment [3], the Fold of selectivity was found to be 7.8× and binding was put at a Kd of 1.6 nM. In addition, in experiment [4], the Kd stood at 12 nM.
Consider `COC[C@H]1C[C@](c2cccc(N3Cc4c(cc(CNC5(C)CCC5)cc4C(F)(F)F)C3=O)c2)(c2nncn2C)C1` [Compound 104, 2-(3-((1r,3r)-3-(methoxymethyl)-1-(4-methyl-4H-1,2,4-triazol-3-yl)cyclobutyl)phenyl)-6-(((1-methylcyclobutyl)amino)methyl)-4-(trifluoromethyl)isoindolin-1-one], for which the IC50 in experiment [1] is 13 nM; in experiment [2], 17 nM. Also, in experiment [1], the “fold-selectivity (Cbl-b over C-cbl)” value amounted to 1.4x. Besides, the Fold of selectivity in experiment [3] amounted to 9.1×. The Kd was found to be 1.6 nM in experiment [3] and 15 nM in experiment [4].
`Cn1cnnc1[C@]1(c2cccc(N3Cc4c(cc(CNC5(C)CCC5)cc4C(F)(F)F)C3=O)c2)C[C@]2(CCO2)C1` [Compound 108, 2-(3-((4r,6r)-6-(4-methyl-4H-1,2,4-triazol-3-yl)-1-oxaspiro[3.3]heptan-6-yl)phenyl)-6-(((1-methylcyclobutyl)amino)methyl)-4-(trifluoromethyl)isoindolin-1-one]: in experiment [1], the IC50 is 17 nM and the “fold-selectivity (Cbl-b over C-cbl)” value is 9.2x. Also, the midpoint of inhibition in experiment [2], the IC50, lay at 160 nM. For the same molecule, in experiment [3], the Fold of selectivity was 21× and the dissociation constant (Kd) is 5.2 nM. Besides, in experiment [4], the dissociation constant Kd was 120 nM.
For `Cn1cnnc1[C@]1(c2cccc(N3Cc4c(cc(CNC5(C)CCC5)cc4C(F)(F)F)C3=O)c2)C[C@@]2(CCO2)C1` [Compound 109, 2-(3-((4s,6s)-6-(4-methyl-4H-1,2,4-triazol-3-yl)-1-oxaspiro[3.3]heptan-6-yl)phenyl)-6-(((1-methylcyclobutyl)amino)methyl)-4-(trifluoromethyl)isoindolin-1-one], in experiment [1], the IC50 turned out to be 47 nM and the “fold-selectivity (Cbl-b over C-cbl)” value came to 4.6x. In experiment [2], it took 220 nM to reach half-maximal inhibition (IC50). In experiment [3], this molecule had a Fold of selectivity of 7.0× and a Kd of 21 nM. The Kd in experiment [4] is 140 nM.
For the molecule `Cn1cnnc1C1(c2cccc(N3Cc4c(cc(CNC5(C)CCC5)cc4C(F)(F)F)C3=O)c2)CN(CC(F)(F)F)C1` [Compound 110, 2-(3-(3-(4-methyl-4H-1,2,4-triazol-3-yl)-1-(2,2,2-trifluoroethyl)azetidin-3-yl)phenyl)-6-(((1-methylcyclobutyl)amino)methyl)-4-(trifluoromethyl)isoindolin-1-one], in experiment [1], the 50% inhibitory concentration (IC50) came out at 1400 nM and the “fold-selectivity (Cbl-b over C-cbl)” value is reported as 6.5x. The molecule also registered an IC50 in experiment [2] of 9400 nM. In experiment [3], this molecule showed a Fold of selectivity of 7.2× and a Kd of 1100 nM. Moreover, the dissociation constant (Kd) in experiment [4] stood at 7600 nM.
Take `Cn1cnnc1C1(c2cccc(N3Cc4c(cc(CNC5(C)CCC5)cc4C(F)(F)F)C3=O)c2)CN(C2COC2)C1` [Compound 111, 2-(3-(3-(4-methyl-4H-1,2,4-triazol-3-yl)-1-(oxetan-3-yl)azetidin-3-yl)phenyl)-6-(((1-methylcyclobutyl)amino)methyl)-4-(trifluoromethyl)isoindolin-1-one]: in experiment [1], the IC50 came out at 4900 nM and the “fold-selectivity (Cbl-b over C-cbl)” value stood at 4.1x. Besides, in experiment [2], the IC50 is 20000 nM. In experiment [3], this molecule gave a Fold of selectivity of 8.6× and a Kd of 3600 nM. The Kd in experiment [4] amounted to 31000 nM.
Take `Cn1cnnc1C1(c2cccc(N3Cc4c(cc(CNC5(C)CCC5)cc4C(F)(F)F)C3=O)c2)CN(S(C)(=O)=O)C1` [Compound 113, 2-(3-(3-(4-methyl-4H-1,2,4-triazol-3-yl)-1-(methylsulfonyl)azetidin-3-yl)phenyl)-6-(((1-methylcyclobutyl)amino)methyl)-4-(trifluoromethyl)isoindolin-1-one]: in experiment [1], 3500 nM corresponded to half-maximal inhibition (IC50) and the “fold-selectivity (Cbl-b over C-cbl)” value came out at 5.3x. In experiment [2], the IC50 came out at 18000 nM. In experiment [3], the Fold of selectivity is recorded as 13× and the Kd is 2700 nM. The molecule also displayed a Kd in experiment [4] of 34000 nM.
